Molecules are shown by their SMILES.

Here are results for one molecule from patent US9751907B2, “Arbekacin derivative, and production and use thereof” (MEIJI SEIKA PHARMA CO., LTD., priority 2013, dated 2017).

A short description of data set [1]: Storage stability of the solid at 40° C. and 75% humidity, related substances analysed by HPLC. The settings on record: for Amount of related substances increased: related substance content: 40° C., 75% RH. It counts as physicochemical. The method, then: The HPLC analysis conditions were as described in (3) Dibekacin and (4) Related substance in the purity test for arbekacin sulfate in the Japanese Pharmacopoeia Sixteen Edition.
Specifically, arbekacin free base was stored at 40° C. and a humidity of 75% for 1 month and 2 months, and the amount of related substances changed was analyzed by HPLC.

Data set [2] can be described thus: Moisture-absorbing properties on storage at 40° C. at defined humidity. It counts as physicochemical. The settings on record: stored at 40° C.

For the molecule `NCC[C@H](O)C(=O)N[C@@H]1C[C@H](N)[C@@H](O[C@H]2O[C@H](CN)CC[C@H]2N)[C@H](O)[C@H]1O[C@H]1O[C@H](CO)[C@@H](O)[C@H](N)[C@H]1O` [arbekacin free base, Arbekacin], the “Amount of related substances increased: related substance content” value in data set [1] (1-month storage) came out at 1.7%; in data set [1] (2-month storage), 4.3%. Moreover, in data set [1] (stored at 40° C. and a humidity of 75% for 1 month and 2 months), the “amount of the related substances changed (i.e., the amount increased)” value is recorded as not below 4%. For the same molecule, the moisture-absorbing properties in data set [2] (Humidity 12%) is reported as 1.60; in data set [2] (Humidity 22%), 4.62; in data set [2] (Humidity 30%) it was 6.25; in data set [2] (Humidity 43%), 7.54; in data set [2] (Humidity 53%), 9.14.
